Reference: patent US20230340011A1 (Asteroid Therapeutics, priority 2022, published 2023)
pEC50, pIC50: −log10 of the molar value. Like-named read-outs stand apart in the source and are kept apart here.

Key:
LXRβ = LXRβ (Homo sapiens (Human), UniProt P55055); assay: In vitro assay LXRβ: PathHunter NHR CHO cells, LXRβ / Steroid Receptor Co-activator Peptide enzyme fragment complementation; type: cell-based
How it was run: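 Co-activator recruitment measured by chemiluminescence after signal generation. The CHO line carries full-length human LXRβ tagged with ProLink and an SRCP–enzyme acceptor fusion in the nucleus; cells sat overnight at 37° C before testing, in charcoal-dextran filtered serum medium with 1% final vehicle.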

SREBP-2 = SREBP-2 (Homo sapiens (Human), UniProt Q12772); assay: In vitro assay SREBP-2: PathHunter U2OS SREBP-2 Nuclear Translocation Cell Line, U18666A-stimulated; type: cell-based; details: PathHunter U2OS SREBP-2 nuclear translocation cells, U18666A 10 μM, overnight (16 hours)
[1] = PathHunter NHR CHO cells, full-length human LXRβ and SRCP, chemiluminescent signal, read-out: LXRβ PPI

Sequence of LXRβ (P55055 whole entry, the tested form may be a part): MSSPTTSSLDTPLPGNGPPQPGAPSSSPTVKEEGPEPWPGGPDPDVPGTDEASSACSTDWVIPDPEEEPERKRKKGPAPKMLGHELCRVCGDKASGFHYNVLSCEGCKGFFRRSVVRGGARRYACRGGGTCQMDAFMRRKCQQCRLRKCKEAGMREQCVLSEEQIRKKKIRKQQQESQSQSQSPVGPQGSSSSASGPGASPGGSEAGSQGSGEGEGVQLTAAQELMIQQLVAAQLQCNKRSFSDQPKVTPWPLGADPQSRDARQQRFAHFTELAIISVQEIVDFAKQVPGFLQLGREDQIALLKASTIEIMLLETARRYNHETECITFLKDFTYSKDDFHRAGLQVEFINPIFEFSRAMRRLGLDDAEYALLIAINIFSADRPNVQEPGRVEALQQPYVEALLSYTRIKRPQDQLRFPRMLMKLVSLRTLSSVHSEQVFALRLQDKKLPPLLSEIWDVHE

Row | Structure (SMILES) | pEC50 (LXRβ; [1]) | pIC50 (SREBP-2) | pEC50 (LXRβ)
1 | CC(=O)N[C@H]1CCN(C(=O)CC[C@@H](C)[C@H]2CC[C@H]3[C@@H]4CC=C5C[C@@H](O)CC[C@]5(C)[C@H]4CC[C@]23C)C1 [Example 322, N—((S)-1-((R)-4-((3S,8S,9S,10R,13R,14S,17R)-3-hydroxy-10,13-dimethyl-2,3,4,7,8,9,10,11,12,13,14,15,16,17-tetradecahydro-1H-cyclopenta[a]phenanthren-17-yl)pentanoyl)pyrrolidin-3-yl)acetamide] | < 5.00 | > 6.60 | –
2 | [C-]#[N+]c1cccnc1CC[C@@H](C)[C@H]1CC[C@H]2[C@@H]3CC=C4C[C@@H](O)CC[C@]4(C)[C@H]3CC[C@]12C [Example 638, (3S,8S,9S,10R,13R,14S,17R)-17-((R)-4-(3-isocyanopyridin-2-yl)butan-2-yl)-10,13-dim ethyl-2,3,4,7,8,9,10,11,12,13,14,15,16,17-tetradecahydro-1H-cyclopenta[a]phenanthren-3-ol] | 6.00 to 6.60 | > 6.60 | –
3 | C[C@H](CCC(=O)N1CCN(c2ncncc2O)CC1)[C@H]1CC[C@H]2[C@@H]3CC=C4C[C@@H](O)CC[C@]4(C)[C@H]3CC[C@]12C [Example 630, (R)-4-((3S,8S,9S,10R,13R,14S,17R)-3-hydroxy-10,13-dimethyl-2,3,4,7,8,9,10,11,12,13,14,15,16,17-tetradecahydro-1H-cyclopenta[a]phenanthren-17-yl)-1-(4-(5-hydroxypyrimidin-4-yl)piperazin-1-yl)pentan-1-one] | < 5.00 | > 6.60 | –
4 | C[C@H](CCC(=O)N(C)C1CCN(C(=O)N(C)C)CC1)[C@H]1CC[C@H]2[C@@H]3CC=C4C[C@@H](O)CC[C@]4(C)[C@H]3CC[C@]12C [Example 644, 4-((R)-4-((3S,8S,9S,10R,13R,14S,17R)-3-hydroxy-10,13-dimethyl-2,3,4,7,8,9,10,11,12,13,14,15,16,17-tetradecahydro-1H-cyclopenta[a]phenanthren-17-yl)-N-methylpentanamido)-N,N-dimethylpiperidine-1-carboxamide] | < 5.00 | > 6.60 | –
5 | C[C@H](CCC(=O)N1CCN(C(=O)c2cn(C)cn2)CC1)[C@H]1CC[C@H]2[C@@H]3CC=C4C[C@@H](O)CC[C@]4(C)[C@H]3CC[C@]12C [Example 538, (4R)-4-[(1R,3aS,3bS,7S,9aR,9bS,11aR)-7-hydroxy-9a,11a-dimethyl-1H,2H,3H,3aH,3bH,4H,6H,7H,8H,9H,9aH,9bH,10H,11H,11aH-cyclopenta[a]phenanthren-1-yl]-1-[4-(1-methyl-1H-imidazole-4-carbonyl)piperazin-1-yl]pentan-1-one] | < 5.00 | > 6.60 | –
6 | C[C@H](CCC(=O)N(C)C1CCN(C(=O)N2CCCC2)CC1)[C@H]1CC[C@H]2[C@@H]3CC=C4C[C@@H](O)CC[C@]4(C)[C@H]3CC[C@]12C [Example 645, (4R)-4-[(1R,3aS,3bS,7S,9aR,9bS,11aR)-7-hydroxy-9a,11a-dimethyl-1H,2H,3H,3aH,3bH,4H,6H,7H,8H,9H,9aH,9bH,10H,11H,11aH-cyclopenta[a]phenanthren-1-yl]-N-methyl-N-[1-(pyrrolidine-1-carbonyl)piperidin-4-yl]pentanamide] | < 5.00 | > 6.60 | –
7 | C[C@H](CCc1ncccc1C(C)(C)O)[C@H]1CC[C@H]2[C@@H]3CC=C4C[C@@H](O)CC[C@]4(C)[C@H]3CC[C@]12C [Example 248, (3S,8S,9S,10R,13R,14S,17R)-17-((R)-4-(3-(2-hydroxypropan-2-yl)pyridin-2-yl)butan-2-yl)-10,13-dimethyl-2,3,4,7,8,9,10,11,12,13,14,15,16,17-tetradecahydro-1H-cyclopenta[a]phenanthren-3-ol] | – | > 6.60 | > 6.60
8 | CON(C[C@@H](C)O)C(=O)CC[C@@H](C)[C@H]1CC[C@H]2[C@@H]3CC=C4C[C@@H](O)CC[C@]4(C)[C@H]3CC[C@]12C [Example 70, (R)-4-((3S,8S,9S,10R,13R,14S,17R)-3-hydroxy-10,13-dimethyl-2,3,4,7,8,9,10,11,12,13,14,15,16,17-tetradecahydro-1H-cyclopenta[a]phenanthren-17-yl)-N—((R)-2-hydroxypropyl)-N-methoxypentanamide] | 6.00 to 6.60 | 6.00 to 6.60 | –
9 | CC(O)C1CCN(C(=O)CC[C@@H](C)[C@H]2CC[C@H]3[C@@H]4CC=C5C[C@@H](O)CC[C@]5(C)[C@H]4CC[C@]23C)CC1 (stereo partly drawn) [Example 377, (4R)-4-[(1R,3aS,3bS,7S,9aR,9bS,11aR)-7-hydroxy-9a,11a-dimethyl-1H,2H,3H,3aH,3bH,4H,6H,7H,8H,9H,9aH,9bH,10H,11H,11aH-cyclopenta[a]phenanthren-1-yl]-1-[4-(1-hydroxyethyl)piperidin-1-yl]pentan-1-one] | 6.00 to 6.60 | > 6.60 | –
10 | CCC(=O)N1CCN(C(=O)CC[C@@H](C)[C@H]2CC[C@H]3[C@@H]4CC=C5C[C@@H](O)CC[C@]5(C)[C@H]4CC[C@]23C)C[C@@H]1C [Example 569, (R)-4-((3S,8S,9S,10R,13R,14S,17R)-3-hydroxy-10,13-dimethyl-2,3,4,7,8,9,10,11,12,13,14,15,16,17-tetradecahydro-1H-cyclopenta [a]phenanthren-17-yl)-1-((S)-3-methyl-4-propionylpiperazin-1-yl)pentan-1-one] | < 5.00 | > 6.60 | –
11 | C[C@H](CCc1cnsc1)[C@H]1CC[C@H]2[C@@H]3CC=C4C[C@@H](O)CC[C@]4(C)[C@H]3CC[C@]12C [Example 176, (3S,8S,9S,10R,13R,14S,17R)-17-((R)-4-(isothiazol-4-yl)butan-2-yl)-10,13-dimethyl-2,3,4,7,8,9,10,11,12,13,14,15,16,17-tetradecahydro-1H-cyclopenta[a]phenanthren-3-ol] | < 5.00 | 6.00 to 6.60 | –
12 | Cc1cncnc1N1CCN(C(=O)CC[C@@H](C)[C@H]2CC[C@H]3[C@@H]4CC=C5C[C@@H](O)CC[C@]5(C)[C@H]4CC[C@]23C)CC1 [Example 508, (R)-4-((3S,8S,9S,10R,13R,14S,17R)-3-hydroxy-10,13-dimethyl-2,3,4,7,8,9,10,11,12,13,14,15,16,17-tetradecahydro-1H-cyclopenta[a]phenanthren-17-yl)-1-(4-(5-methylpyrimidin-4-yl)piperazin-1-yl)pentan-1-one] | < 5.00 | > 6.60 | –
13 | C[C@H](CCc1ncns1)[C@H]1CC[C@H]2[C@@H]3CC=C4C[C@@H](O)CC[C@]4(C)[C@H]3CC[C@]12C [Example 174, (1R,3aS,3bS,7S,9aR,9bS,11aR)-9a,11a-dimethyl-1-[(2R)-4-(1,2,4-thiadiazol-5-yl)butan-2-yl]-1H,2H,3H,3aH,3bH,4H,6H,7H,8H,9H,9aH,9bH,10H,11H,11aH-cyclopenta[a]phenanthren-7-ol] | 6.00 to 6.60 | 6.00 to 6.60 | –
14 | Cc1nccc(N2CCN(C(=O)CC[C@@H](C)[C@H]3CC[C@H]4[C@@H]5CC=C6C[C@@H](O)CC[C@]6(C)[C@H]5CC[C@]34C)C[C@@H]2C)n1 [Example 647, (4R)-4-[(1R,3aS,3bS,7S,9aR,9bS,11aR)-7-hydroxy-9a,11a-dimethyl-1H,2H,3H,3aH,3bH,4H,6H,7H,8H,9H,9aH,9bH,10H,11H,11aH-cyclopenta[a]phenanthren-1-yl]-1-[(3S)-3-methyl-4-(2-methylpyrimidin-4-yl)piperazin-1-yl]pentan-1-one] | < 5.00 | > 6.60 | –
15 | CC(=O)N1CCCN(C(=O)CC[C@@H](C)[C@H]2CC[C@H]3[C@@H]4CC=C5C[C@@H](O)CC[C@]5(C)[C@H]4CC[C@]23C)CC1 [Example 317, (R)-1-(4-acetyl-1,4-diazepan-1-yl)-4-((3S,8S,9S,10R,13R,14S,17R)-3-hydroxy-10,13-dimethyl-2,3,4,7,8,9,10,11,12,13,14,15,16,17-tetradecahydro-1H-cyclopenta[a]phenanthren-17-yl)pentan-1-one] | < 5.00 | > 6.60 | –
16 | C[C@H](CCc1ccc(F)cn1)[C@H]1CC[C@H]2[C@@H]3CC=C4C[C@@H](O)CC[C@]4(C)[C@H]3CC[C@]12C [Example 162, (1R,3aS,3bS,7S,9aR,9bS,11aR)-1-[(2R)-4-(5-fluoropyridin-2-yl)butan-2-yl]-9a,11a-dimethyl-1H,2H,3H,3aH,3bH,4H,6H,7H,8H,9H,9aH,9bH,10H,11H,11aH-cyclopenta[a]phenanthren-7-ol] | 5.00 to 6.00 | > 6.60 | –
17 | C[C@@H](NC(=O)C(=O)N(C)C)[C@H]1CC[C@H]2[C@@H]3CC=C4C[C@@H](O)CC[C@]4(C)[C@H]3CC[C@]12C (single isomer, unassigned) [Example 118] | < 5.00 | < 5.00 | –
18 | Cc1cc(N2CCN(C(=O)CC[C@@H](C)[C@H]3CC[C@H]4[C@@H]5CC=C6C[C@@H](O)CC[C@]6(C)[C@H]5CC[C@]34C)CC2)ncn1 [Example 206, (4R)-4-[(1R,3aS,3bS,7S,9aR,9bS,11aR)-7-hydroxy-9a,11a-dimethyl-1H,2H,3H,3aH,3bH,4H,6H,7H,8H,9H,9aH,9bH,10H,11H,11aH-cyclopenta[a]phenanthren-1-yl]-1-[4-(6-methylpyrimidin-4-yl)piperazin-1-yl]pentan-1-one] | < 5.00 | > 6.60 | –
19 | C[C@H](CCC(=O)N1CCN(C(=O)N(C)C)CC1)[C@H]1CC[C@H]2[C@@H]3CC=C4C[C@@H](O)CC[C@]4(C)[C@H]3CC[C@]12C [Example 339, 4-[(4R)-4-[(1R,3aS,3bS,7S,9aR,9bS,11aR)-7-hydroxy-9a,11a-dimethyl-1H,2H,3H,3aH,3bH,4H,6H,7H,8H,9H,9aH,9bH,10H,11H,11aH-cyclopenta[a]phenanthren-1-yl]pentanoyl]-N,N-dimethylpiperazine-1-carboxamide] | < 5.00 | > 6.60 | –
